Assay results reported in patent US6939948B1, “GD2 peptide mimics” (Health Research, Inc., priority 2002, dated 2005).
No end group written: not given here.

System: anti-GD2 ganglioside mAb 3F8
Assay: Inhibition assay: inhibition of binding of anti-GD2 mAb 3F8 to GD2 ganglioside bearing melanoma cells
Settings: GD2 (+) human melanoma cells
Method: Peptide mimics of GD2 ganglioside can be isolated by panning phage display peptide libraries with anti-GD2 ganglioside such as mAbs 3F8, 5F11, and KM666 that recognize different epitopes on GD2 ganglioside. Anti-GD2 ganglioside mAbs can be used to isolate phage that display antibody reactive peptides. After phage panning, the binding ability of isolated phage colonies to anti-GD2 ganglioside mAbs is tested with immunoscreening and further confirmed by ELISA. Anti-GD2 antibody reactive phage clone and the same phage without displaying peptides, can be utilized as a positive and a negative controls respectively in the immunoscreening and ELISA. In the positive phage clones, the DNA inserts that encode the antibody reactive peptides can be sequenced. Peptides can be synthesized based on the sequences of the DNA inserts. The synthesized peptides are tested in ELISA to determine their binding reactivity with corresponding anti-GD2 ganglioside mAbs. […] The synthetic peptides that inhibit or block the binding of anti-GD2 ganglioside mAbs to GD2 ganglioside can be tested as active immunotherapy candidates.
The synthesized peptides were tested with reverse ELISA and inhibition assay with mAb 3F8. […] Peptide J51 contains HLA-B7 and HLA-DRB1 binding motifs.

Row | Substance | inhibition of the binding of mAb 3F8 to GD2 ganglioside bearing melanoma cells
1 | DCFRGDPYQPKWRLC (J51 peptide mimic for GD2) [Peptide J51, GD2 peptide mimic from PVIII X15 library] | inhibited the binding
2 | cJ51: cyclic peptide J51, which mimics the structure of GD2 ganglioside (DCFRGDPYQPKWRLC; also: cyclic, cyclising bond not given here) | inhibit the binding
